Reference: PMC12388980, “Development of AGT-7: An Innovative ^99mTc-Labeled Theranostic Platform for Glioblastoma Imaging and Therapy” (Pharmaceuticals, 2025)

Columns and labels:
T98 cells [1] = experiment: Trypan blue exclusion cytotoxicity assay, T98 cells; assay type: cell-based; settings: Homo sapiens, T98 cell line, 72 h post-treatment
Procedure: (§1) To explore the effect of AGT-7 on the viability of GBM cell lines, T98 and U87 cells were cultured with escalating concentrations of the compounds for 72 h, and afterward, the trypan blue exclusion assay was carried out.
(§2) The sensitivity of T98 and U87 cells to the compound was assessed using the trypan blue exclusion test. A total of 20,000 cells were seeded onto 12-well plates and incubated in a humidified atmosphere. After 24 h, cells were treated with the compound at concentrations of 20–100 μM for 72 h followed by trypan blue exclusion analysis. The results were derived as the mean of three independent experiments.
(§3) Figure 3 Cytotoxic effect of AGT-7 on T98 (A) and U87 cell lines (B) 72 h after treatment. The results are the average of three independent experiments and are standardized to untreated cells. The IC50 values were calculated using the GraphPad Prism Version 6 non-linear regression analysis model.
as §3, with “4” for “3”, “AGT-7 and TMZ” for “AGT-7”

U87 cells [2] = experiment: Trypan blue exclusion cytotoxicity assay, U87 cells; assay type: cell-based; settings: Homo sapiens, U-87 MG, U87 cell line, 72 h post-treatment
Procedure: as §1, §2, §3
as §3, with “4” for “3”, “AGT-7 and TMZ” for “AGT-7”

[3] = LC-MS-based plasma stability in human plasma; assay type: in vitro ADME; settings: 1 μM, 37 °C, 9-h incubation period, compared to TMZ
Procedure: Plasma samples were diluted 1:1 (v/v) with phosphate buffer (pH 7.4). […] The mixtures were vortexed vigorously and incubated at 37 °C on a thermoshaker (Kisker Biotech, Steinfurt, Germany) at 600 rpm. Reactions were terminated at 0, 1, 2, 3, 4, 6, 9, and 24 h by transferring 150 μL of the incubated plasma into 450 μL of ice-cold ACN. After vortexing, samples were stored at −20 °C for 30 min and centrifuged, and 200 μL of the supernatant was diluted with 600 μL of water. The resulting solution was filtered through a 0.22 μm nylon syringe filter (Target Analysis, Thessaloniki, Greece) into 2 mL glass vials before analysis.
The mobile phase consisted of (A) 0.1% formic acid in water and (B) 0.05% formic acid in ACN, delivered constantly at 0.2 mL/min. The gradient program was optimized as follows: 1% B (0.00–3.00 min), linear ramp to 100% B (3.00–10.00 min), hold at 100% B (10.00–12.00 min), return to initial conditions (12.00–12.01 min), and re-equilibration at 1% B (12.01–15.00 min). […]
Full-scan MS data were acquired in MS^E mode with two alternating collision energy functions: low energy (4 eV) for precursor ions and ramped high energy (25–45 eV) for fragment ions. […] System control and data acquisition were managed using MassLynx v4.2 (SCN 1029), while UNIFI v1.9.4.053 facilitated data processing, including adduct identification ([M+H]⁺, [M+Na]⁺, [M+H2]^2+) and relative quantitation. […]

U87 cells [4] = experiment: Flow cytometric analysis of DNA cell cycle, U87 cells; assay type: cell-based; settings: treated at IC50 for 72 h
Procedure: (§4) Subsequently, cells were washed with phosphate-buffered saline (PBS) solution, harvested by incubation with trypsin, and held at 37 °C for 20 min with a PI working solution ([…], and 0.1% Triton X-100). PI fluorescence data were collected using a flow cytometer (Cytognos S.L., Polígono La Serna, Nave 9, 37900 Santa Marta de Tormes, Salamanca, Spain) and were analyzed using GraphPad Prism Version 6 software and MedCalc software (trial version).
(§5) Figure 5 Graphical representation of cell cycle distribution in T98 (A) and U87 (B) cell lines after treatment with AGT-7 in IC50 concentration. Experiment was carried out three times, and values are means of three repetitions.

T98 cells [5] = experiment: Flow cytometric analysis of DNA cell cycle, T98 cells; assay type: cell-based; settings: treated at IC50 for 72 h
Procedure: as §4, §5

[6] = test system: zebrafish (Danio rerio) embryos; experiment: Acute toxicity test in zebrafish embryos (OECD 2010); assay type: in vivo; settings: 96 hpf
Procedure: Prior to advancing the biological evaluation of AGT-7, it was essential to assess its in vivo acute toxicity. To this end, we employed a standard acute exposure assay using zebrafish (Danio rerio) embryos as a vertebrate model system. Drug exposure was for 96 h post-fertilization (hpf), following the guidelines established by the Organisation for Economic Co-operation and Development (OECD, 2010) for fish embryo toxicity testing. […] This alignment between therapeutically effective concentrations and sub-lethal doses in vivo underscores a favorable safety profile for AGT-7 and supports its further preclinical development.
Adult zebrafish specimens of the wild-type strain (AB) were maintained in a colony room, in a recirculated system, at 28 ± 1 °C, pH 6.5–7.5, and water conductivity of 500 ± 50 μS cm−1 with a 14 h light/10 h dark photoperiod (lights on at 8:00 a.m.). Feeding of the fish was performed twice a day with zebrafish feed (Zebrafeed, Sparos, […]) following common practices. Sexually mature zebrafish (at least three months old) were used for spawning.
The collection of zebrafish eggs was performed at the beginning of the 14 h light phase following the mating procedure that took place overnight. […] The dechorionation process of the eggs followed at 24 h post-fertilization (hpf).
The dechorionated embryos were placed in 24-well culture plates (2 embryos per well, 1.5 mL of solution per well), and each experiment was performed in triplicate. Preliminary tests were performed to evaluate the range of 0–100% mortality. DMSO (0.1%) was used as dissolver and as well as vehicle control (non-exposed). In the current study, seven different concentrations of AGT-7 were tested (0.0, 10.0, 20.0, 40.0, 60.0, 80.0, and 100.0 μΜ). In total, 881 embryos were studied, of which 96 belonged to the non-exposed group. […] Each experiment lasted 96 h post fertilization time (hpf) and began at 24 hpf, approximately at the 26-somite point, according to Kimmel et al..
It is essential to apply an acute test that uses short-term exposure (96hpf) to AGT-7 and then to determine the concentration that is lethal to 50% of zebrafish embryos. This is a valuable indicator of acute fish toxicity. According to OECD 2010, indications of death of an embryo include coagulation of the embryo, lack of somite formation, non-detachment of the tail, and/or lack of heartbeat.
Toxicity assays (LD50 values) and confidence limits (LD25 and LD75) were calculated based on cumulative mortality at the end of the experiment (96 hpf). The LD50 values were assessed using Regression Probit analysis (the chi-square test, Pearson goodness of fit test, and 95% confidence interval).

Compound | IC50 (T98 cells [1]) | IC50 (U87 cells [2]) | plasma stability profile [3] | effect on cell cycle progression (U87 cells [4]) | effect on cell cycle progression (T98 cells [5]) | LD25 [6] | LD75 [6] | concentrations with no significant mortality [6] | LD50 ([6]; cumulative mortality, probit analysis)
Cn1nnc2c(C(=O)NCCCCN(Cc3ccccn3)Cc3ccccn3)ncn2c1=O [AGT-7] | 27 µM | 30 µM | very similar to that of the parent drug, TMZ | no significant effect on cell cycle progression | no significant effect on cell cycle progression | 35.54 µM | 61.64 µM | up to 30 μM | 46.81 µM
Cn1nnc2c(C(N)=O)ncn2c1=O [TMZ, temozolomide, reference compound] | 143 µM | 50 µM | – | – | – | – | – | – | –
